# Results published in ChEMBL document CHEMBL4004821, “Design and synthesis of novel tetrandrine derivatives as potential anti-tumor agents against human hepatocellular carcinoma” (Eur J Med Chem, 2017).
# The source made the active and inactive calls. No cut-off for these calls is given here.
# Experiments:
# PLC-PRF-5 [1] = assay: Induction of apoptosis in human PLC/PRF/5 cells assessed as necrotic cells at 1.25 to 2.5 uM after 24 hrs by annexin V/7-AAD staining-based flow cytometric method (reference value: 1.87%); type: functional
# MHCC97L [2] = assay: Cytotoxicity against human MHCC97L cells assessed as decrease in cell viability at 1.25 to 2.5 uM after 24 hrs in presence of necrosis inhibitor necrostatin-1 by MTT assay; type: functional, cell-based
# MHCC97L [3] = assay: Cytotoxicity against human MHCC97L cells assessed as decrease in cell viability at 1.25 to 2.5 uM after 24 hrs in presence of caspase inhibitor Z-vad-fmk by MTT assay; type: functional, cell-based
# PLC-PRF-5 [4] = assay: Cytotoxicity against human PLC/PRF/5 cells assessed as growth inhibition after 24 hrs by MTT assay; type: functional, cell-based; details: PLC-PRF-5, 24 h
# [5] = Cell cycle arrest in human MHCC97L cells assessed as accumulation at G0/G1 phase at 1.25 to 2.5 uM after 24 hrs by propidium iodide staining-based flow cytometric method (reference value: 65.24%); type: functional
# [6] = Cell cycle arrest in human MHCC97L cells assessed as accumulation at G2/M phase at 1.25 to 2.5 uM after 24 hrs by propidium iodide staining-based flow cytometric method (reference value: 20.60%); type: functional
# [7] = Potency index, ratio of sorafenib IC50 to test compound IC50 for human MHCC97L cells; type: functional
# PLC-PRF-5 [8] = assay: Induction of apoptosis in human PLC/PRF/5 cells assessed as viable cells at 1.25 to 2.5 uM after 24 hrs by annexin V/7-AAD staining-based flow cytometric method (reference value: 95%); type: functional
# MHCC97L [9] = assay: Cytotoxicity against human MHCC97L cells assessed as decrease in cell viability at 1.25 to 2.5 uM after 24 hrs in presence of endoplasmic reticulum stress reliever TUDCA by MTT assay; type: functional, cell-based
# PLC-PRF-5 [10] = assay: Cytotoxicity against human PLC/PRF/5 cells assessed as decrease in cell viability at 1.25 to 2.5 uM after 24 hrs in presence of JNK inhibitor SP600125 by MTT assay; type: functional, cell-based
# [11] = Induction of apoptosis in human MHCC97L cells assessed as late apoptotic cells at 1.25 to 2.5 uM after 24 hrs by annexin V/7-AAD staining-based flow cytometric method (reference value: 3.66%); type: functional
# PLC-PRF-5 [12] = assay: Cell cycle arrest in human PLC/PRF/5 cells assessed as accumulation at G0/G1 phase at 1.25 to 2.5 uM after 24 hrs by propidium iodide staining-based flow cytometric method (reference value: 69.17%); type: functional
# PLC-PRF-5 [13] = assay: Potency index, ratio of sorafenib IC50 to test compound IC50 for human PLC/PRF/5 cells; type: functional
# PLC-PRF-5 [14] = assay: Induction of endoplasmic reticulum stress in human PLC/PRF/5 cells at 1.25 to 2.5 uM after 24 hrs by ER tracker red staining-based fluorescence microscopic method; type: functional, cell-based
# [15] = Cytotoxicity against human MHCC97L cells assessed as growth inhibition after 24 hrs by MTT assay; type: functional, cell-based
# MHCC97L [16] = assay: Cytotoxicity against human MHCC97L cells assessed as decrease in cell viability at 1.25 to 2.5 uM after 24 hrs in presence of JNK inhibitor SP600125 by MTT assay; type: functional, cell-based
# PLC-PRF-5 [17] = assay: Induction of apoptosis in human PLC/PRF/5 cells assessed as early apoptotic cells at 1.25 to 2.5 uM after 24 hrs by annexin V/7-AAD staining-based flow cytometric method (reference value: 0.467%); type: functional
# PLC-PRF-5 [18] = assay: Cell cycle arrest in human PLC/PRF/5 cells assessed as accumulation at G2/M phase at 1.25 to 2.5 uM after 24 hrs by propidium iodide staining-based flow cytometric method (reference value: 18.18%); type: functional
# MHCC97L [19] = assay: Induction of endoplasmic reticulum stress in human MHCC97L cells assessed as upregulation of GRP78 gene expression at 1.25 to 2.5 uM after 24 hrs by qRT-PCR method; type: functional, cell-based
# PLC-PRF-5 [20] = assay: Potency index, ratio of tetrandrine IC50 to test compound IC50 for human PLC/PRF/5 cells; type: functional
# PLC-PRF-5 [21] = assay: Cytotoxicity against human PLC/PRF/5 cells assessed as decrease in cell viability at 1.25 to 2.5 uM after 24 hrs in presence of endoplasmic reticulum stress reliever TUDCA by MTT assay; type: functional, cell-based
# [22] = biological target: T1, c-Jun N-terminal kinase, JNK (Homo sapiens) (UniProt P45983+P53779+P45984); assay: Induction of JNK activation in human MHCC97L cells assessed as increase in caspase 3 cleavage at 1.25 to 2.5 uM after 24 hrs by immunoblot method; type: cell-based
# [23] = biological target: T1, c-Jun N-terminal kinase, JNK (Homo sapiens); assay: Induction of JNK phosphorylation in human MHCC97L cells at 1.25 to 2.5 uM after 24 hrs by immunoblot method; type: cell-based
# [24] = Cell cycle arrest in human MHCC97L cells assessed as accumulation at S phase at 1.25 to 2.5 uM after 24 hrs by propidium iodide staining-based flow cytometric method (reference value: 18.41%); type: functional
# MHCC97L [25] = assay: Cytotoxicity against human MHCC97L cells assessed as decrease in cell viability at 1.25 to 2.5 uM after 24 hrs in presence of autophagy inhibitor bafilomycin A1 by MTT assay; type: functional, cell-based
# [26] = biological target: T1, c-Jun N-terminal kinase, JNK (Homo sapiens); assay: Induction of JNK activation in human PLC/PRF/5 cells assessed as increase in caspase 3 cleavage at 1.25 to 2.5 uM after 24 hrs by immunoblot method; type: cell-based
# [27] = Induction of apoptosis in human MHCC97L cells assessed as necrotic cells at 1.25 to 2.5 uM after 24 hrs by annexin V/7-AAD staining-based flow cytometric method (reference value: 3.44%); type: functional
# PLC-PRF-5 [28] = assay: Cytotoxicity against human PLC/PRF/5 cells assessed as decrease in cell viability at 1.25 to 2.5 uM after 24 hrs in presence of autophagy inhibitor bafilomycin A1 by MTT assay; type: functional, cell-based
# PLC-PRF-5 [29] = assay: Induction of apoptosis in human PLC/PRF/5 cells assessed as late apoptotic cells at 1.25 to 2.5 uM after 24 hrs by annexin V/7-AAD staining-based flow cytometric method (reference value: 2.66%); type: functional
# PLC-PRF-5 [30] = assay: Cytotoxicity against human PLC/PRF/5 cells assessed as decrease in cell viability at 1.25 to 2.5 uM after 24 hrs in presence of caspase inhibitor Z-vad-fmk by MTT assay; type: functional, cell-based
# PLC-PRF-5 [31] = assay: Induction of endoplasmic reticulum stress in human PLC/PRF/5 cells assessed as upregulation of GRP78 gene expression at 1.25 to 2.5 uM after 24 hrs by qRT-PCR method; type: functional, cell-based
# [32] = Induction of apoptosis in human MHCC97L cells assessed as early apoptotic cells at 1.25 to 2.5 uM after 24 hrs by annexin V/7-AAD staining-based flow cytometric method (reference value: 0.601%); type: functional
# PLC-PRF-5 [33] = assay: Induction of endoplasmic reticulum stress in human PLC/PRF/5 cells assessed as upregulation of ATF4 gene expression at 1.25 to 2.5 uM after 24 hrs by qRT-PCR method; type: functional, cell-based
# [34] = Induction of apoptosis in human MHCC97L cells assessed as viable cells at 1.25 to 2.5 uM after 24 hrs by annexin V/7-AAD staining-based flow cytometric method (reference value: 93.4%); type: functional
# PLC-PRF-5 [35] = assay: Cytotoxicity against human PLC/PRF/5 cells assessed as decrease in cell viability at 1.25 to 2.5 uM after 24 hrs in presence of necrosis inhibitor necrostatin-1 by MTT assay; type: functional, cell-based
# PLC-PRF-5 [36] = assay: Cell cycle arrest in human PLC/PRF/5 cells assessed as accumulation at S phase at 1.25 to 2.5 uM after 24 hrs by propidium iodide staining-based flow cytometric method (reference value: 20.73%); type: functional
# [37] = Potency index, ratio of tetrandrine IC50 to test compound IC50 for human MHCC97L cells; type: functional
# MHCC97L [38] = assay: Induction of endoplasmic reticulum stress in human MHCC97L cells at 1.25 to 2.5 uM after 24 hrs by ER tracker red staining-based fluorescence microscopic method; type: functional, cell-based
# [39] = biological target: T1, c-Jun N-terminal kinase, JNK (Homo sapiens); assay: Induction of JNK phosphorylation in human PLC/PRF/5 cells at 1.25 to 2.5 uM after 24 hrs by immunoblot method; type: cell-based
# MHCC97L [40] = assay: Induction of endoplasmic reticulum stress in human MHCC97L cells assessed as upregulation of ATF4 gene expression at 1.25 to 2.5 uM after 24 hrs by qRT-PCR method; type: functional, cell-based
compound,measurement,setting,value
COc1cc(NC(=O)c2ccco2)c2cc1Oc1ccc(cc1)C[C@H]1c3cc(c(OC)cc3CCN1C)Oc1c(OC)c(OC)cc3c1[C@H](C2)N(C)CC3,Activity,PLC-PRF-5 [1],3.9%
same,Activity,MHCC97L [2],Active
same,Activity,MHCC97L [3],inactive
same,IC50,PLC-PRF-5 [4],1.23 µM
same,Activity,[5],68.52%
same,Activity,[6],18.29%
same,Ratio IC50,[7],30.3
same,Activity,PLC-PRF-5 [8],36.4%
same,Activity,MHCC97L [9],inactive
same,Activity,PLC-PRF-5 [10],inactive
same,Activity,[11],39.6%
same,Activity,PLC-PRF-5 [12],67.11%
same,Ratio IC50,PLC-PRF-5 [13],30.3
same,Activity,PLC-PRF-5 [14],Active
same,IC50,[15],0.89 µM
same,Activity,MHCC97L [16],inactive
same,Activity,PLC-PRF-5 [17],16.9%
same,Activity,PLC-PRF-5 [18],17.78%
same,Activity,MHCC97L [19],Active
same,Ratio IC50,PLC-PRF-5 [20],15.8
same,Activity,PLC-PRF-5 [21],inactive
same,Activity,[22],Active
same,Activity,[23],Active
same,Activity,[24],21.59%
same,Activity,MHCC97L [25],Active
same,Activity,[26],Active
same,Activity,[27],4.18%
same,Activity,PLC-PRF-5 [28],Active
same,Activity,PLC-PRF-5 [29],42.8%
same,Activity,PLC-PRF-5 [30],inactive
same,Activity,PLC-PRF-5 [31],Active
same,Activity,[32],9.76%
same,Activity,PLC-PRF-5 [33],Active
same,Activity,[34],46.4%
same,Activity,PLC-PRF-5 [35],Active
same,Activity,PLC-PRF-5 [36],21.55%
same,Ratio IC50,[37],15.8
same,Activity,MHCC97L [38],Active
same,Activity,[39],Active
same,Activity,MHCC97L [40],Active
